Consider 22 molecules from US20230357233A1, “HETEROARYL COMPOUNDS, PREPARATION METHODS AND USES THEREOF” (INVENTISBIO CO., LTD., priority 2020, published 2023).

The test addresses Ba/F3_KRAS^G12D cells (Homo sapiens, UniProt P01116, G12D, cells depend on it). Put plainly: Ba/F3 KRAS^G12D cell proliferation assay (cell-titer Glo). The test is classed as cell-based. Particulars: cell growth inhibition, treated with the compounds for 3 days, read-out: BaF3_KRAS^G12D IC50. The protocol:
Cells were seeded at a density of 5×10^3 per well into 96-well plate and incubated overnight. Serial diluted compounds were added to each well. Cells were treated with the compounds for 3 days, after which cell-titer Glo reagent (Promega #G7572) was used to assess cell proliferation. The luminescence signal was then collected on Tecan Spark plate reader. […] Cell growth inhibition of IC50 is calculated with the equation of Y=Bottom+(Top−Bottom)/(1+10^((LogIC50−X)*HillSlope))

A value given as a limit tells only on which side of the number the result lay.

Chain of Ba/F3_KRAS^G12D cells (P01116 whole entry G12D): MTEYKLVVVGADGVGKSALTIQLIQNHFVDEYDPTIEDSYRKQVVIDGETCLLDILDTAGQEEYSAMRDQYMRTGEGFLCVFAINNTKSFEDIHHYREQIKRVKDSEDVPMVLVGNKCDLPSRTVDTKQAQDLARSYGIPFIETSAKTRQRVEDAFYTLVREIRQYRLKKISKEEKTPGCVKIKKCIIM

With `C#Cc1c(F)ccc2cc(O)cc(-c3nc(OC)c4c(N5CC6CCC(C5)N6)nc(OCC5(CN6CCOCC6)CC5)nc4c3F)c12` [Compound 185], the GI50 is less than 500 nM.
The result for `C#Cc1c(F)ccc2cc(N)cc(-c3nc(OC(C)C)c4c(N5CC6CCC(C5)N6)nc(OC[C@@]56CCCN5C[C@H](F)C6)nc4c3F)c12` [Compound 200] reads less than 500 nM; that for `C#Cc1c(F)ccc2cc(O)cc(-c3nc(OC(C)C)c4c(N5CCNC(C(F)F)C5)nc(OC[C@@]56CCCN5C[C@H](F)C6)nc4c3F)c12` (stereo partly shown) [Compound 220], less than 500 nM.
Under `C#Cc1c(F)ccc2cc(O)cc(-c3nc(OCC)c4c(N5CC6CCC(C5)O6)nc(OC[C@@]56CCCN5C[C@H](F)C6)nc4c3F)c12` [Compound 169] stands less than 500 nM.
The result for `C#Cc1c(F)ccc2cc(O)cc(-c3nc(OC(C)C)c4c(N5CC6CCC(C5)N6)nc(N)nc4c3F)c12` [Compound 188] reads 500 to 5000 nM; that for `C#Cc1c(F)ccc2cc(O)cc(-c3nc(C4CC4)c4c(N5CC6CCC(C5)N6)ncnc4c3F)c12` [Compound 205], less than 500 nM.
With `C#Cc1c(F)ccc2cc(O)cc(-c3nc(O)c4c(N5CC6CCC(C5)N6)nc(OCCOC)nc4c3F)c12` [Compound 193], the GI50 is less than 500 nM.
Under `C#Cc1c(F)ccc2cc(O)cc(-c3nc(OC(C)C)c4c(N5CC6CCC(C5)N6)ncnc4c3F)c12` [Compound 150] stands less than 500 nM.
Under `C#Cc1c(F)ccc2cc(O)cc(-c3nc(OC(C)C)c4c(N5CC6CCC(C5)N6)nc(N(C)C)nc4c3F)c12` [Compound 189] stands 500 to 5000 nM.
Under `C#Cc1c(F)ccc2cc(O)cc(-c3nc(OCC)c4c(N5CC6CCC(C5)N6)nc(OC[C@]56CCCN5[C@@H](COC(=O)N(C)C)CC6)nc4c3F)c12` [Compound 233] stands less than 500 nM.
Take `C#Cc1c(F)ccc2cc(O)cc(-c3nc(OC(C)C)c4c(N5CC6CCC(C5)N6)nc(C(F)F)nc4c3F)c12` [Compound 190]: the GI50 is less than 500 nM.
For the molecule `C#Cc1c(F)ccc2cc(O)cc(-c3nc(C4CC4)c4c(N5CC6CCC(C5)N6)nc(OC[C@@]56CCCN5C[C@H](F)C6)nc4c3F)c12` [Compound 181], the GI50 was less than 500 nM.
Consider `C#Cc1c(F)ccc2cc(N)cc(-c3nc(Cl)c4c(N5CC6CCC(C5)N6)nc(OC[C@@]56CCCN5C[C@H](F)C6)nc4c3F)c12` [Compound 158], for which the GI50 was less than 500 nM.
Under `C#Cc1c(F)ccc2cccc(-c3nc(OC(C)C)c4c(N5CC6CCC(C5)N6)nc(OC[C@]56CCCN5[C@@H](COC(=O)N5CCOCC5)CC6)nc4c3F)c12` [Compound 245] stands less than 500 nM; under `C#Cc1c(F)ccc2cc(O)cc(-c3nc(OC(C)C)c4c(N5CC6CCC(C5)N6)nc(OCCN(C)C)nc4c3F)c12` [Compound 194], less than 500 nM; under `C#Cc1c(F)ccc2cccc(-c3nc(OC)c4c(N5CC6CCC(C5)N6)nc(OC[C@]56CCCN5[C@@H](COC(=O)N(C)C)CC6)nc4c3F)c12` [Compound 216], less than 500 nM.
The result for `C#Cc1c(F)ccc2cc(O)cc(-c3nc(OC(C)C)c4c(N5CC6CCC(C5)N6)nc(OC)nc4c3F)c12` [Compound 191] reads less than 500 nM; that for `C#Cc1c(F)ccc2cc(O)cc(-c3nc(OCC)c4c(N5C[C@H]6CC[C@@H](C5)[C@@H]6O)nc(OC[C@@]56CCCN5C[C@H](F)C6)nc4c3F)c12` [Compound 212], less than 500 nM; that for `C#Cc1c(F)ccc2cc(O)cc(-c3nc(OC(C)C)c4c(N5CC6CCC(C5)N6)nc(OC[C@]56CCCN5[C@H](CO)CC6)nc4c3F)c12` [Compound 228], less than 500 nM.
The result for `C#Cc1c(F)ccc2cccc(-c3nc(O)c4c(N5CC6CCC(C5)N6)nc(OC[C@@]56CCCN5C[C@H](F)C6)nc4c3F)c12` [Compound 154] reads 500 to 5000 nM; that for `C#Cc1c(F)ccc2cc(N)cc(-c3nc(O)c4c(N5CC6CCC(C5)N6)nc(OC[C@@H]5C[C@@H](F)CN5C)nc4c3F)c12` [Compound 210], 500 to 5000 nM; that for `C#Cc1c(F)ccc2cc(O)cc(-c3nc(OC)c4c(N5CC6CCC(C5)N6)nc(OCC5(CN6CCC6)CC5)nc4c3F)c12` [Compound 184], less than 500 nM.
